Measurements from patent publication US8871798B2, “Tricyclic pyridyl-vinyl pyrroles as PAR1 inhibitors” (Sanofi, priority 2010, dated 2014).

Molecular target: T1, PAR1 (Homo sapiens, UniProt P25116)
T1 construct: endogenous in cells; host or cells: washed platelets from blood of healthy volunteers
T1 sequence (P25116 22-425): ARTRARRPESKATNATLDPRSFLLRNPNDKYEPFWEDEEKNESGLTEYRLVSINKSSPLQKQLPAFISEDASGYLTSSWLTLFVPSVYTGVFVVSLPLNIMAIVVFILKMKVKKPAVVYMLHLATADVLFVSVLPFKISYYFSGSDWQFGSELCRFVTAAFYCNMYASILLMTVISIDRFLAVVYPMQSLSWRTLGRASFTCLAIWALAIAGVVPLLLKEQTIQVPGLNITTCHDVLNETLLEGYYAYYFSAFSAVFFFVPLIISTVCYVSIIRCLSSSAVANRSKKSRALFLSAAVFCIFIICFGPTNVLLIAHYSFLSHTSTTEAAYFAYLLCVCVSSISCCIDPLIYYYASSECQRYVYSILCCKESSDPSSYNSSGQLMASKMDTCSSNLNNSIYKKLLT
Assay: Inhibition of PAR1-mediated platelet aggregation induced by TRAP (thrombin receptor-activating peptide), washed platelets, 96-well format
Assay type: cell-based
Details: TRAP-induced aggregation of platelets from healthy volunteers; 30 min preincubation at RT; AUC of kinetics at 650 nm, 37° C., 20 minutes
Procedure: PAR1 Determination Method: Inhibition of PAR1-Mediated Platelet Aggregation
The pharmacological testing of the substances took place in platelet aggregation induced by TRAP (thrombin receptor-activating peptide) in 96-well format. For this purpose, blood was taken from healthy volunteers in 20 ml syringes containing 2 ml of 3.13% strength sodium citrate solution. After centrifugation at 150×g for 20 minutes, the platelet-rich plasma (PRP) was separated off and mixed with 1 μl of PGE1 solution (500 μg/ml in ethanol)/ml of PRP. Incubation at RT for 5 minutes was followed by centrifugation at 120×g for 15 minutes to remove the leukocytes. The leukocyte-free PRP was transferred in 5 ml portions into 15 ml PP tubes and centrifuged at 360×g for 15 minutes in order to pellet the platelets. The plasma was then decanted off and the platelet sediment from 5 ml of PRP was resuspended in 1 ml of Tyrode's (120 mM NaCl, 2.6 mM KCl, 12 mM NaHCO3, 0.39 mM NaH2PO4×H2O, 10 mM HEPES, 0.35% BSA (Bovine Serum Albumin), 5.5 mM glucose, pH 7.4) and adjusted with Tyrode's to a platelet count of 3×10^5/microliter (μl). 13 ml of this cell suspension were then mixed with 866 μl of 10 mM CaCl2 solution, and 120 μl thereof were pipetted into each well of a 96-well plate containing 15 μl of the substance to be tested. After incubation at RT in the dark for 30 minutes, 15 μl of a TRAP solution (70-100 μM) were added as agonist, and kinetics were recorded at 650 nm in a SpectraMax 340 at 37° C. for 20 minutes while shaking. The areas under the curves of negative control (Tyrode's/DMSO) and positive control (15 μl of agonist DMSO) were calculated and the difference was fixed as the 100% value. The substances to be tested were pipetted as serial dilutions in duplicate determination, the AUC was likewise determined for each substance concentration, and the % inhibition of the AUC compared with the control was calculated. On the basis of the % inhibition, the IC50 was calculated by nonlinear regression analysis according to the 4-parameter equation.

IC50 [µM] | SMILES
15.8 | CN1C(=O)C2C(C1=O)C1C[C@H](O)CN1C2/C=C/c1ccc(-c2cccc(F)c2)cn1 (mixture of isomers) [11 (Fr. 2), (S)-4-{(E)-2-[5-(3-Fluorophenyl)pyridin-2-yl]vinyl}-7-hydroxy-2-methylhexahydropyrrolo[3,4-a]pyrrolizine-1,3-dione]
3.68 | CCN1C(=O)C2C(C1=O)C1CCCCN1C2/C=C/c1ccc(-c2cccc(F)c2)cn1 (racemic) [14 (Fr. 3), 2-Ethyl-4-{(E)-2-[5-(3-fluorophenyl)pyridin-2-yl]vinyl}octahydropyrrolo[3,4-a]indolizine-1,3-dione]
0.26 | CN1C(=O)[C@@H]2[C@H](C1=O)[C@H](/C=C/c1ccc(-c3ccccc3Cl)cn1)N1CCCC[C@@H]21 (racemic) [Example 20, 4-{(E)-2-[5-(2-Chlorophenyl)pyridin-2-yl]vinyl}-2-methyloctahydropyrrolo[3,4-a]-indolizine-1,3-dione]

More lines, now with the values behind:

SMILES | IC50 [µM]
CN1C(=O)C2C(C1=O)C1COCCN1C2/C=C/c1ccc(-c2cccc(F)c2)cn1 (racemic) [13 (Fr. 3), 6-{(E)-2-[5-(3-Fluorophenyl)pyridin-2-yl]vinyl}-8-methylhexahydropyrrolo[3′,4′:3,4]pyrrolo[2,1-c][1,4]oxazine-7,9-dione] | 7.1
CN1C(=O)[C@@H]2[C@H](C1=O)[C@H](/C=C/c1ccc(-c3cccc(C(F)(F)F)c3)cn1)N1CCCC[C@@H]21 (racemic) [Example 18, 2-Methyl-4-{(E)-2-[5-(3-trifluoromethylphenyl)pyridin-2-yl]vinyl}octahydropyrrolo[3,4-a]indolizine-1,3-dione] | 3.23
COc1ccccc1-c1ccc(/C=C/[C@H]2[C@H]3C(=O)N(C)C(=O)[C@H]3[C@@H]3CCCCN23)nc1 (racemic) [Example 19, 4-{(E)-2-[5-(2-Methoxyphenyl)pyridin-2-yl]vinyl}-2-methyloctahydropyrrolo[3,4-a]-indolizine-1,3-dione] | 4.09
